Test results: PubChem BioAssay (NCI)
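Dose response: 5 concentrations. Exposure: 48 h. Format: 96-well plates. Endpoint: linear interpolation; highest concentration if not reached. The concentration for full growth arrest is given as TGI.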

Columns and labels:
Experiment in all cases: growth of human tumour cells (NCI), 48 h
[1] = test system: NCI-H226 lung
[2] = test system: ACHN renal
[3] = test system: RPMI-8226 leukemia
[4] = test system: TK-10 renal
[5] = test system: DMS 273 small cell lung
[6] = test system: M19-MEL melanoma
[7] = test system: MOLT-4 leukemia
[8] = test system: M14 melanoma
[9] = test system: NCI-H23 lung
[10] = test system: UACC-62 melanoma
[11] = test system: A549 NSCLC
[12] = test system: HOP-92 NSCLC
[13] = test system: SK-MEL-28 melanoma
[14] = test system: OVCAR-3 ovarian
[15] = test system: KM20L2 colon
[16] = test system: SR leukemia
[17] = test system: HCT-116 colon
[18] = test system: U251 CNS
[19] = test system: SN12C renal
[20] = test system: UACC-257 melanoma
[21] = test system: CCRF-CEM leukemia
[22] = test system: LOX IMVI melanoma
[23] = test system: XF 498 CNS
[24] = test system: LXFL 529 NSCLC
[25] = test system: MALME-3M melanoma
[26] = test system: SW-620 colon
[27] = test system: SNB-78 CNS
[28] = test system: DLD-1 colon
[29] = test system: HL-60(TB) leukemia
[30] = test system: SNB-19 CNS
[31] = test system: IGROV1 ovarian
[32] = test system: NCI-H522 lung
[33] = test system: RXF-631 renal
[34] = test system: SK-OV-3 ovarian
[35] = test system: SK-MEL-2 melanoma
[36] = test system: K-562 leukemia
[37] = test system: SF-268 CNS
[38] = test system: CAKI-1 renal
[39] = test system: KM12 colon
[40] = test system: HCT-15 colon
[41] = test system: 786-0 renal
[42] = test system: SF-295 CNS
[43] = test system: SF-539 CNS
[44] = test system: UO-31 renal
[45] = test system: EKVX NSCLC
[46] = test system: SNB-75 CNS
[47] = test system: HOP-18 NSCLC
[48] = test system: SK-MEL-5 melanoma
[49] = test system: NCI-H460 lung
[50] = test system: DMS 114 small cell lung
[51] = test system: OVCAR-5 ovarian
[52] = test system: HT29 colon
[53] = test system: HCC-2998 colon
[54] = test system: OVCAR-4 ovarian
[55] = test system: COLO 205 colon
[56] = test system: A498 renal
[57] = test system: OVCAR-8 ovarian
[58] = test system: HOP-62 NSCLC

`CC(C)c1ccccc1NC(=O)CCC(=O)NN` showed a TGI [1] greater than 100 µM, a TGI [2] greater than 100 µM and a TGI [3] greater than 100 µM. For the same compound, the TGI [4] was greater than 100 µM, the TGI [5] was greater than 100 µM and the TGI [6] was greater than 100 µM. It also gave a TGI [7] greater than 100 µM, a TGI [8] greater than 100 µM and a TGI [9] greater than 100 µM. For the same compound, the TGI [10] was greater than 100 µM, the TGI [11] was greater than 100 µM and the TGI [12] was greater than 100 µM. It also gave a TGI [13] greater than 100 µM, a TGI [14] greater than 100 µM and a TGI [15] greater than 100 µM. For the same compound, the TGI [16] was greater than 100 µM, the TGI [17] was greater than 100 µM and the TGI [18] was greater than 100 µM. It also gave a TGI [19] greater than 100 µM, a TGI [20] greater than 100 µM and a TGI [21] greater than 100 µM. It also gave a TGI [22] greater than 100 µM, a TGI [23] greater than 100 µM and a TGI [24] greater than 100 µM. The TGI [25] was greater than 100 µM, the TGI [26] was greater than 100 µM and the TGI [27] was greater than 100 µM. The TGI [28] was greater than 100 µM, the TGI [29] was greater than 100 µM and the TGI [30] was greater than 100 µM. The TGI [31] was greater than 100 µM, the TGI [32] was greater than 100 µM and the TGI [33] was greater than 100 µM. The TGI [34] was greater than 100 µM, the TGI [35] was greater than 100 µM and the TGI [36] was greater than 100 µM. The TGI [37] was greater than 100 µM, the TGI [38] was greater than 100 µM and the TGI [39] was greater than 100 µM. For the same compound, the TGI [40] was greater than 100 µM, the TGI [41] was greater than 100 µM and the TGI [42] was greater than 100 µM. It also gave a TGI [43] greater than 100 µM, a TGI [44] greater than 100 µM and a TGI [45] greater than 100 µM. The TGI [46] was greater than 100 µM.
For `COC(=O)C1CC2c3c(c4ccccc4n3C)CC(C1=O)N2C` (configuration not stated), the TGI [1] was greater than 100 µM, the TGI [2] was greater than 100 µM and the TGI [4] was greater than 100 µM. It also gave a TGI [47] greater than 100 µM, a TGI [5] of 43.6 µM and a TGI [6] greater than 100 µM. The TGI [7] was greater than 100 µM, the TGI [8] was greater than 100 µM and the TGI [9] was greater than 100 µM. For the same compound, the TGI [10] was greater than 100 µM, the TGI [11] was greater than 100 µM and the TGI [12] was greater than 100 µM. For the same compound, the TGI [13] was greater than 100 µM, the TGI [14] was greater than 100 µM and the TGI [15] was greater than 100 µM. It also gave a TGI [16] of 87.6 µM, a TGI [17] of 92.8 µM and a TGI [18] greater than 100 µM. It also gave a TGI [48] greater than 100 µM, a TGI [49] greater than 100 µM and a TGI [19] greater than 100 µM. For the same compound, the TGI [20] was greater than 100 µM, the TGI [21] was greater than 100 µM and the TGI [50] was 60.7 µM. It also gave a TGI [22] greater than 100 µM, a TGI [51] greater than 100 µM and a TGI [24] greater than 100 µM. It also gave a TGI [25] greater than 100 µM, a TGI [26] greater than 100 µM and a TGI [27] greater than 100 µM. The TGI [28] was greater than 100 µM, the TGI [29] was 68.5 µM and the TGI [30] was greater than 100 µM. For the same compound, the TGI [31] was greater than 100 µM, the TGI [52] was greater than 100 µM and the TGI [53] was greater than 100 µM. For the same compound, the TGI [32] was 34.8 µM, the TGI [33] was greater than 100 µM and the TGI [34] was greater than 100 µM. For the same compound, the TGI [35] was greater than 100 µM, the TGI [36] was greater than 100 µM and the TGI [54] was greater than 100 µM. The TGI [37] was greater than 100 µM, the TGI [38] was greater than 100 µM and the TGI [55] was 32.5 µM. The TGI [56] was greater than 100 µM, the TGI [39] was greater than 100 µM and the TGI [40] was 50.7 µM. It also gave a TGI [41] greater than 100 µM, a TGI [42] greater than 100 µM and a TGI [43] greater than 100 µM. For the same compound, the TGI [44] was 69 µM, the TGI [45] was greater than 100 µM and the TGI [46] was greater than 100 µM. For the same compound, the TGI [57] was greater than 100 µM.
`Clc1ccc(OCc2nnc3n2N=C(c2ccccc2)CS3)cc1` showed a TGI [58] of 34.8 µM, a TGI [1] of 39.9 µM and a TGI [2] of 37.5 µM. It also gave a TGI [3] of 32.7 µM, a TGI [4] of 53.4 µM and a TGI [5] of 30.5 µM. For the same compound, the TGI [6] was 33.1 µM, the TGI [7] was 62.5 µM and the TGI [8] was 41 µM. The TGI [9] was 25.2 µM, the TGI [10] was 28.4 µM and the TGI [11] was 35.1 µM. The TGI [12] was 36.7 µM, the TGI [13] was 38.2 µM and the TGI [14] was 32.4 µM. The TGI [15] was 30.6 µM, the TGI [16] was 29.5 µM and the TGI [17] was 23.3 µM. For the same compound, the TGI [18] was 31.9 µM, the TGI [49] was 30.5 µM and the TGI [19] was 25.8 µM. The TGI [20] was 29.3 µM, the TGI [22] was 30.8 µM and the TGI [23] was 30.9 µM. For the same compound, the TGI [51] was 36.1 µM, the TGI [24] was 40.7 µM and the TGI [25] was 34.5 µM. The TGI [26] was 32.9 µM, the TGI [28] was 44 µM and the TGI [29] was 30.4 µM. It also gave a TGI [30] of 46.3 µM, a TGI [31] of 23.5 µM and a TGI [52] of 29.8 µM. It also gave a TGI [53] of 32.1 µM, a TGI [32] of 36.5 µM and a TGI [33] of 31.1 µM. The TGI [34] was 44.7 µM, the TGI [35] was 34.4 µM and the TGI [36] was 42.8 µM. For the same compound, the TGI [54] was 30.6 µM, the TGI [37] was 39.9 µM and the TGI [38] was 61.8 µM. The TGI [55] was 30.8 µM, the TGI [39] was 31.6 µM and the TGI [40] was 31 µM. The TGI [41] was 30.2 µM, the TGI [42] was 36.7 µM and the TGI [43] was 33.3 µM. It also gave a TGI [44] of 20.8 µM, a TGI [46] of 85.7 µM and a TGI [57] of 27.3 µM.
